Laboratory results: the supplement of paper PMC11451515

Assays:
Conditions in all cases: 48 h
NOMO1 [1] = assay: cell viability relative to DMSO control; higher = less cytotoxic
Summary of the method: (§1)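 Cells were incubated for 48 h at 37°C before CellTiter-Glo One luminescence was read. The cells were NOMO1 or SEM (500 cells/well) or P12-Ichikawa (1000 cells/well) leukemia cells, adapted for at least four passages in each medium and seeded in 1536-well plates (5 μl). Dosing used library compounds in DMSO applied by pin over 11 threefold points, 47 μM to 0.79 nM. Viability is the per-plate percentage of DMSO wells, with cell-free wells as background.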

SEM cells [2] = assay: as above
Summary of the method: as §1

P12-Ichikawa [3] = assay: as above
Summary of the method: as §1

NOMO1 [4] = assay: AUC of viability dose-response curve (% viability x log10 dose units); higher = less sensitive
Summary of the method: (§2)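 Library compounds in DMSO were applied for 48 h at 37°C at 11 threefold doses (47 μM to 0.79 nM) to medium-adapted leukemia cells in 1536-well plates holding 500 or 1000 cells/well. Luminescence from CellTiter-Glo One was normalised plate by plate against DMSO and cell-free wells. Area under the curve came from trapezoidal integration of a log-logistic fit, after scaling curves that rose above full viability and discarding those that failed quality control. The fit had four parameters and used log10 doses.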

SEM cells [5] = assay: as above
Summary of the method: as §2

P12-Ichikawa [6] = assay: as above
Summary of the method: as §2

CC#C[C@]1(O)CC[C@H]2[C@@H]/3CCC/4=C/C(=O)CCC4=C3[C@H](C[C@]12C)C5=CC=C(C=C5)N(C)C
cell viability [%]
Conditions	NOMO1 [1]	P12-Ichikawa [3]	SEM cells [2]
HPLM + 10% dialyzed FBS, 0.000781 µM	95.5	101	76.6
HPLM + 10% dialyzed FBS, 0.00234 µM	99.9	101	74.8
HPLM + 10% dialyzed FBS, 0.00702 µM	101	103	88.3
HPLM + 10% dialyzed FBS, 0.0211 µM	102	105	80.4
HPLM + 10% dialyzed FBS, 0.0632 µM	103	107	68.9
HPLM + 10% dialyzed FBS, 0.19 µM	96.1	110	87.4
HPLM + 10% dialyzed FBS, 0.569 µM	102	107	84.1
HPLM + 10% dialyzed FBS, 1.71 µM	94.8	98.7	89.9
HPLM + 10% dialyzed FBS, 5.12 µM	79.3	102	89.9
HPLM + 10% dialyzed FBS, 15.4 µM	9.1	75.1	86.1
HPLM + 10% dialyzed FBS, 46.1 µM	6.71	73.1	58.7
RPMI 5 mM glucose + 10% FBS, 0.000781 µM	83.5	95.6	76
RPMI 5 mM glucose + 10% FBS, 0.00234 µM	95.2	108	84.6
RPMI 5 mM glucose + 10% FBS, 0.00702 µM	91.3	105	99.9
RPMI 5 mM glucose + 10% FBS, 0.0211 µM	86.2	104	102
RPMI 5 mM glucose + 10% FBS, 0.0632 µM	90	105	96
RPMI 5 mM glucose + 10% FBS, 0.19 µM	88.1	93.9	86.3
RPMI 5 mM glucose + 10% FBS, 0.569 µM	93.4	106	105
RPMI 5 mM glucose + 10% FBS, 1.71 µM	95.5	87.4	92.7
RPMI 5 mM glucose + 10% FBS, 5.12 µM	73.2	83.4	96.1
RPMI 5 mM glucose + 10% FBS, 15.4 µM	9.23	61.2	73
RPMI 5 mM glucose + 10% FBS, 46.1 µM	5.91	30.8	58.3
RPMI 5 mM glucose + 10% dialyzed FBS, 0.000781 µM	90.7	80	87.2
RPMI 5 mM glucose + 10% dialyzed FBS, 0.00234 µM	81.5	94	91.6
RPMI 5 mM glucose + 10% dialyzed FBS, 0.00702 µM	88.7	92.7	101
RPMI 5 mM glucose + 10% dialyzed FBS, 0.0211 µM	97.2	98.9	110
RPMI 5 mM glucose + 10% dialyzed FBS, 0.0632 µM	110	102	92
RPMI 5 mM glucose + 10% dialyzed FBS, 0.19 µM	90.3	97.6	90.3
RPMI 5 mM glucose + 10% dialyzed FBS, 0.569 µM	93	93	96
RPMI 5 mM glucose + 10% dialyzed FBS, 1.71 µM	85.4	95.9	84
RPMI 5 mM glucose + 10% dialyzed FBS, 5.12 µM	70.9	83	92.8
RPMI 5 mM glucose + 10% dialyzed FBS, 15.4 µM	9.38	51.5	83
RPMI 5 mM glucose + 10% dialyzed FBS, 46.1 µM	6.16	39.6	49.5

AUC of viability dose-response curve
Conditions	NOMO1 [4]	P12-Ichikawa [6]	SEM cells [5]
HPLM + 10% dialyzed FBS	399	456	384
RPMI 5 mM glucose + 10% FBS	364	422	426
RPMI 5 mM glucose + 10% dialyzed FBS	370	411	432

CC1(C)[C@@H](O[C@H]2O[C@H](C(=O)O)[C@@H](O)[C@H](O)[C@H]2O[C@@H]2O[C@H](C(=O)O)[C@@H](O)[C@H](O)[C@H]2O)CC[C@]2(C)[C@H]3C(=O)C=C4[C@@H]5C[C@@](C)(C(=O)O)CC[C@]5(C)CC[C@@]4(C)[C@]3(C)CC[C@@H]12
cell viability [%]
Conditions	NOMO1 [1]	P12-Ichikawa [3]	SEM cells [2]
HPLM + 10% dialyzed FBS, 0.000781 µM	–	112	116
HPLM + 10% dialyzed FBS, 0.00234 µM	–	130	113
HPLM + 10% dialyzed FBS, 0.00702 µM	–	118	117
HPLM + 10% dialyzed FBS, 0.0211 µM	–	132	104
HPLM + 10% dialyzed FBS, 0.0632 µM	–	128	145
HPLM + 10% dialyzed FBS, 0.19 µM	–	131	114
HPLM + 10% dialyzed FBS, 0.569 µM	–	136	143
HPLM + 10% dialyzed FBS, 1.71 µM	–	128	128
HPLM + 10% dialyzed FBS, 5.12 µM	–	123	150
HPLM + 10% dialyzed FBS, 15.4 µM	–	128	165
HPLM + 10% dialyzed FBS, 46.1 µM	–	135	163
RPMI 5 mM glucose + 10% dialyzed FBS, 0.000781 µM	109	–	–
RPMI 5 mM glucose + 10% dialyzed FBS, 0.00234 µM	123	–	–
RPMI 5 mM glucose + 10% dialyzed FBS, 0.00702 µM	134	–	–
RPMI 5 mM glucose + 10% dialyzed FBS, 0.0211 µM	142	–	–
RPMI 5 mM glucose + 10% dialyzed FBS, 0.0632 µM	154	–	–
RPMI 5 mM glucose + 10% dialyzed FBS, 0.19 µM	145	–	–
RPMI 5 mM glucose + 10% dialyzed FBS, 0.569 µM	136	–	–
RPMI 5 mM glucose + 10% dialyzed FBS, 1.71 µM	160	–	–
RPMI 5 mM glucose + 10% dialyzed FBS, 5.12 µM	154	–	–
RPMI 5 mM glucose + 10% dialyzed FBS, 15.4 µM	140	–	–
RPMI 5 mM glucose + 10% dialyzed FBS, 46.1 µM	161	–	–

AUC of viability dose-response curve
Conditions	NOMO1 [4]	P12-Ichikawa [6]	SEM cells [5]
HPLM + 10% dialyzed FBS	407	473	383
RPMI 5 mM glucose + 10% FBS	455	468	437
RPMI 5 mM glucose + 10% dialyzed FBS	452	470	450
